From patent US9359409B2, “Antimicrobial peptides, compositions comprising the same and uses thereof” (priority 2012, dated 2016)
Read-outs that look alike come from different tables or passages of the source. Ends that are not written are not given here.

Legend:
[1] = tested on: human erythrocytes; assay: Erythrocyte hemolysis assay (cytotoxicity); type: cell-based; conditions: peptide 128 ug/ml
Procedure: Subsequently, the capacity of the peptides of the invention for lysing human erythrocytes was evaluated, as a measure of their cytotoxicity (Table 2). The assays were carried out according to the Examples and are expressed as a percentage of total lysis obtained with either water or the surfactant Tween 20. In this assays, the lower hemolysis percentage, the lower expected cytotoxic activity.
Evaluation of cytotoxic activity was performed by means of an erythrocyte hemolysis assay (according to Pure Appl. Chem., Vol. 79, No. 4, pp. 717-728, 2007). In brief, from a volume of heparinized human whole blood, 3 times that volume of PBS is added and centrifuged 10 minutes at 1500 rpm, repeating the washing two more times. 10% blood solutions in PBS were prepared with that pellet. Subsequently, each group was added the corresponding peptide at the indicated concentration and incubated at 37° C. for 30 minutes. […]

[2] = tested on: Klebsiella pneumoniae
Procedure: (§1) The 5 designed and synthesized peptides of the invention, plus omiganan (peptide of the state of the art) were evaluated for their antimicrobial capacity in microdilution assays for determining the minimum inhibitory concentration (MIC). A first panel of 8 representative strains was analyzed in these assays, encompassing Gram positive and Gram negative bacteria. […] The lowest MIC values indicate a higher antimicrobial potency.
(§2) Subsequently, an analysis of a panel of clinical isolates including strains with different resistance mechanisms against conventional antibiotics was carried out, all of which are of clinical relevance. […] In Table 3 the results for a panel of Gram negative bacteria are shown, and in Table 4 for a panel of […] bacteria. In these tables the detected gene/s responsible for the resistance against antibiotics for each strain, are included.
(§3) Antimicrobial activity was analyzed by means of the determination of the MIC (minimum inhibitory concentration) by the microdilution technique. The technique was carried out in the standard fashion according to (CLSI M07-A9 Vol. 32 No 2. January 2012). The peptide concentration range used was from 0.5 μg/mL to 512 μg/mL in two-fold serial dilutions. The used medium was MH Difco broth supplemented with cations, at a final concentration of Ca^++20-25 mg/L and Mg^++10-12.5 mg/L. The working inoculum used corresponds to a 1/100 dilution of a bacterial suspension equivalent to 0.5 in the Mc Farland scale.

[3] = tested on: Escherichia coli
Procedure: as §1, §2, §3

[4] = tested on: S. saprophyticus
Procedure: as §2, §3

[5] = tested on: A. baumanii
Procedure: as §2, §3

[6] = tested on: E. raffinosus; conditions: E. raffinosus M6187, resistance gene vanA
Procedure: as §2, §3

[7] = tested on: S. haemolyticus
Procedure: as §2, §3

[8] = tested on: A. junii; conditions: A. junii M9013, resistance gene oxa-51 + imp
Procedure: as §2, §3

[9] = tested on: E. faecalis
Procedure: as §2, §3

[10] = tested on: E. gallinarum
Procedure: as §2, §3

[11] = tested on: S. hominis
Procedure: as §2, §3

[12] = tested on: P. aeruginosa; type: cell-based
Procedure: (§4) In vitro sensitivity assay of aerobically growing bacteria, using the disc diffusion method was performed according to the standards in the M2 document of the CLSI (Clinical and Laboratory Standards Institute: Performance Standards for Antimicrobial Disk Susceptibility Tests.) using the non-amidated peptides
(§5) In brief, intermediate solutions (10×) of the antimicrobial non-amidated peptides were prepared by serial dilutions 1:2, 1:4 and 1:8 by two-fold dilutions. Then, one part of the solution of the antimicrobial peptide 10× was added to nine parts of melted bacteriological agar. The antibiotic solution was added for each dilution, in the melted agar and cooled to 45-50° C. in a water bath. Then, the agar-antibiotic mixture was placed in a Petri dish until a 3-4 mm depth was reached. The inoculum is prepared with a turbidity of 0.5 in the McFarland scale (approximately 1-2 10^8 CFU/ml). The final inoculum required for the agar dilution test is 10^4 colony forming units (CFU) per “spot” having 5-8 mm in diameter. The inoculated plates must be incubated upside down at 35° C. for a period of 16-20 hs. MIC was recorded as the value of the lower dilution completely inhibiting bacterial development, without considering the development of a single colony or a slight film caused by the inoculum deposit. The final point in these cases will correspond to the concentration at which there is more than 80% reduction in growth as compared with the control.

[13] = tested on: S. warnerii; type: cell-based
Procedure: as §4, §5

[14] = tested on: S. aureus; type: cell-based; conditions: non-amidated peptides
Procedure: as §4, §5

[15] = tested on: Staphylococcus aureus; assay: MIC by broth microdilution; type: cell-based
Procedure: as §1, §2, §3

[16] = tested on: Pseudomonas aeruginosa; assay: MIC by broth microdilution; type: cell-based
Procedure: as §1, §2, §3

With “ILRWPWWPWRRK-NH2 [Omiganan, ILRWPWWPWRRK, reference compound]” the “Hemolysis % (1% Tween20)” value ([1]; percentage of total lysis obtained with 1% Tween20) was 11.6%, the “Hemolysis % (water)” value ([1]; percentage of total lysis obtained with water) was 10% and the “OD 540 nm” value ([1]; supernatant of human erythrocytes, 37° C., 30 minutes) was 0.171. The MIC ([2]; K. Pneumoniae M9885, resistance gene kpc) was 256 µg/mL, the MIC ([2]; K. pneumoniae M9170, resistance gene oxa-GIII) was 128 µg/mL and the MIC ([2]; K. pneumoniae M9491, resistance gene mox) was 128 µg/mL. The MIC ([2]; K. pneumoniae M13540, resistance gene kpc) was 256 µg/mL, the MIC ([3]; E. coli ABC11, resistance gene ctx-m-2) was 64 µg/mL and the MIC ([3]; E. coli Cos15, resistance gene per + tem) was 64 µg/mL. For the same substance, the MIC ([3]; E. coli LCA1, resistance gene ctx-m-2 + tem-1) was 64 µg/mL, the MIC ([3]; E. coli M5306, resistance gene ctx-m-2 + tem-1 + per-2) was 64 µg/mL and the MIC ([3]; E. coli M7859, resistance gene cit) was 64 µg/mL. It also gave an MIC ([3]; E. coli M9209, resistance gene kpc) of 64 µg/mL, an MIC ([3]; E. coli NEU23, resistance gene oxa-GIII + tem) of 32 µg/mL and an MIC [4] of 8 µg/mL. The MIC ([5]; A. baumanii FAV-1, resistance gene per + oxa-51 + oxa-58) was 64 µg/mL, the MIC ([5]; A. baumanii M5179, resistance gene oxa-51) was 64 µg/mL and the MIC ([5]; A. baumanii M5277, resistance gene per) was 32 µg/mL. For the same substance, the MIC ([5]; A. baumanii M5282, resistance gene oxa-51) was 16 µg/mL, the MIC ([5]; A. baumanii M7489, resistance gene oxa-51 + tem) was 32 µg/mL and the MIC ([5]; A. baumanii M7978, resistance gene imp) was 64 µg/mL. For the same substance, the MIC ([5]; A. baumanii M9665, resistance gene oxa-51) was 64 µg/mL, the MIC ([5]; A. baumanii M13523, resistance gene oxa-51) was 64 µg/mL and the MIC [6] was 4 µg/mL. It also gave an MIC [7] of 4 µg/mL, an MIC [8] of 64 µg/mL and an MIC [9] of 128 µg/mL. It also gave an MIC ([9]; E. faecalis ATCC 51299, resistance gene vanB) of 256 µg/mL, an MIC ([9]; E. faecalis M4449, resistance gene vanA) of 128 µg/mL and an MIC ([9]; E. faecalis M4899, resistance gene vanB) of 256 µg/mL. The MIC ([9]; E. faecalis M4992, resistance gene vanA) was 128 µg/mL, the MIC ([9]; E. faecalis M6383, resistance gene vanA) was 128 µg/mL and the MIC ([9]; E. faecalis M6534, resistance gene vanB) was 256 µg/mL. For the same substance, the MIC ([9]; E. faecalis M6983, resistance gene vanA) was 128 µg/mL, the MIC ([10]; E. gallinarum M2685, resistance gene vanC1 + vanA) was 16 µg/mL and the MIC ([10]; E. gallinarum M2723, resistance gene vanC1 + vanA) was 16 µg/mL. For the same substance, the MIC [11] was 4 µg/mL, the “MIC in agar dilution” value [12] was >128 µg/mL and the “MIC in agar dilution” value ([12]; non-amidated peptides, P. aeruginosa M13513, KPC) was >128 µg/mL. The “MIC in agar dilution” value [13] was 16 µg/mL, the “MIC in agar dilution” value ([14]; S. aureus ATCC29213, MSSA) was >128 µg/mL and the “MIC in agar dilution” value ([14]; S. aureus M6794, MRSA) was >128 µg/mL. It also gave an MIC ([15]; S. aureus 28, resistance gene ermA) of 32 µg/mL, an MIC ([15]; S. aureus 33, resistance gene msrA) of 32 µg/mL and an MIC ([15]; S. aureus 204, resistance gene ermA) of 64 µg/mL. It also gave an MIC ([15]; S. aureus 239, resistance gene ermC) of 32 µg/mL, an MIC ([15]; S. aureus M2832, resistance gene mecA) of 64 µg/mL and an MIC ([15]; S. aureus M4046, resistance gene mecA) of 32 µg/mL. It also gave an MIC ([15]; S. aureus M6276, resistance gene ermA + lnuA) of 32 µg/mL, an MIC ([15]; S. aureus M6784, resistance gene mecA) of 32 µg/mL and an MIC ([15]; S. aureus M6820, resistance gene mecA) of 128 µg/mL. For the same substance, the MIC ([16]; P. aeruginosa M5109, resistance gene vim) was 256 µg/mL, the MIC ([16]; P. aeruginosa M7723, resistance gene kpc) was 256 µg/mL and the MIC ([16]; P. aeruginosa M7907, resistance gene per) was 128 µg/mL. For the same substance, the MIC ([16]; P. aeruginosa M13513, resistance gene kpc) was 256 µg/mL.
